Source: ChEMBL document CHEMBL6109102, “Conjugation with the XJB peptide enhanced neuroprotective effect of honokiol via SIRT3 modulation” (Eur J Med Chem, 2025)
Calls of active or inactive are those of the source. The calls are words filed in the database; no cut-off is given here.

What was measured:
PC-12 [1] = assay: Cytotoxicity against rat PC12 cells assessed as inhibition of cell viability at 30 uM incubated for 24 hrs by MTT assay; assay type: functional, cell-based
PC-12 [2] = assay: Neuroprotective activity against H2O2-induced cell injury in rat PC12 cells assessed as cell viability at 2 uM incubated for 24 hrs by MTT assay; assay type: functional, cell-based
PC-12 [3] = assay: Cytoprotective activity against H2O2-induced cell injury in rat PC12 cells at 2.5 uM incubated with compound for 24 hrs followed by H2O2 addition and measured up to 96 hrs by Real-time cell analysis; assay type: functional, cell-based; details: time <= 120.0 hrs
PC-12 [4] = assay: Inhibition of apoptosis in H2O2-induced rat PC12 cells assessed as viable cells at 1.25 uM incubated with compound for 24 hrs followed by H2O2 addition and measured after 24 hrs by Annexin V-FITC/PI staining based flow cytometry analysis (reference value: 91.4%); assay type: functional; details: read-out: Activity
PC-12 [5] = assay: Inhibition of apoptosis in H2O2-induced rat PC12 cells assessed as early apoptotic cells at 1.25 uM incubated with compound for 24 hrs followed by H2O2 addition and measured after 24 hrs by Annexin V-FITC/PI staining based flow cytometry analysis (reference value: 1.09%); assay type: functional; parameters: scale not given: the % may be the effect or the level left
PC-12 [6] = assay: Inhibition of apoptosis in H2O2-induced rat PC12 cells assessed as late apoptotic cells at 1.25 uM incubated with compound for 24 hrs followed by H2O2 addition and measured after 24 hrs by Annexin V-FITC/PI staining based flow cytometry analysis (reference value: 2.64%); assay type: functional; parameters: scale not given: the % may be the effect or the level left
PC-12 [7] = assay: Inhibition of apoptosis in H2O2-induced rat PC12 cells assessed as necrotic cells at 1.25 uM incubated with compound for 24 hrs followed by H2O2 addition and measured after 24 hrs by Annexin V-FITC/PI staining based flow cytometry analysis (reference value: 4.05%); assay type: functional; parameters: scale not given: the % may be the effect or the level left
PC-12 [8] = assay: Inhibition of apoptosis in H2O2-induced rat PC12 cells assessed as viable cells at 2.5 uM incubated with compound for 24 hrs followed by H2O2 addition and measured after 24 hrs by Annexin V-FITC/PI staining based flow cytometry analysis (reference value: 91.4%); assay type: functional; details: read-out: Activity
PC-12 [9] = assay: Inhibition of apoptosis in H2O2-induced rat PC12 cells assessed as early apoptotic cells at 2.5 uM incubated with compound for 24 hrs followed by H2O2 addition and measured after 24 hrs by Annexin V-FITC/PI staining based flow cytometry analysis (reference value: 1.09%); assay type: functional; parameters: scale not given: the % may be the effect or the level left
PC-12 [10] = assay: Inhibition of apoptosis in H2O2-induced rat PC12 cells assessed as late apoptotic cells at 2.5 uM incubated with compound for 24 hrs followed by H2O2 addition and measured after 24 hrs by Annexin V-FITC/PI staining based flow cytometry analysis (reference value: 2.64%); assay type: functional; parameters: scale not given: the % may be the effect or the level left
PC-12 [11] = assay: Inhibition of apoptosis in H2O2-induced rat PC12 cells assessed as necrotic cells at 2.5 uM incubated with compound for 24 hrs followed by H2O2 addition and measured after 24 hrs by Annexin V-FITC/PI staining based flow cytometry analysis (reference value: 4.05%); assay type: functional; parameters: scale not given: the % may be the effect or the level left
PC-12 [12] = assay: Inhibition of apoptosis in H2O2-induced rat PC12 cells assessed as viable cells at 5 uM incubated with compound for 24 hrs followed by H2O2 addition and measured after 24 hrs by Annexin V-FITC/PI staining based flow cytometry analysis (reference value: 91.4%); assay type: functional; details: read-out: Activity
PC-12 [13] = assay: Inhibition of apoptosis in H2O2-induced rat PC12 cells assessed as early apoptotic cells at 5 uM incubated with compound for 24 hrs followed by H2O2 addition and measured after 24 hrs by Annexin V-FITC/PI staining based flow cytometry analysis (reference value: 1.09%); assay type: functional; parameters: scale not given: the % may be the effect or the level left
PC-12 [14] = assay: Inhibition of apoptosis in H2O2-induced rat PC12 cells assessed as late apoptotic cells at 5 uM incubated with compound for 24 hrs followed by H2O2 addition and measured after 24 hrs by Annexin V-FITC/PI staining based flow cytometry analysis (reference value: 2.64%); assay type: functional; parameters: scale not given: the % may be the effect or the level left
PC-12 [15] = assay: Inhibition of apoptosis in H2O2-induced rat PC12 cells assessed as necrotic cells at 5 uM incubated with compound for 24 hrs followed by H2O2 addition and measured after 24 hrs by Annexin V-FITC/PI staining based flow cytometry analysis (reference value: 4.05%); assay type: functional; parameters: scale not given: the % may be the effect or the level left
PC-12 [16] = assay: Anti-apoptotic activity in H2O2-induced rat PC12 cells assessed as increase in PARP protein expression at 1.25 to 5 uM by Western blot analysis; assay type: functional, cell-based; details: dose 1.25-5 µM
Danio rerio = assay: Anti-alzheimer activity in scopolamine induced zebrafish alzheimer disease model assessed as increase in total swimming distance at 1.25 to 5 uM administered for 6 days post fertilization; assay type: functional, organism-based; details: dose 1.25-5 µM, time 6.0 day
PC-12 [17] = assay: Neuroprotective activity against H2O2-induced cell injury in rat PC12 cells assessed as cell viability incubated for 24 hrs by MTT assay; assay type: functional, cell-based; details: dose 0.37-30 µM
SH-SY5Y = assay: Cytotoxicity against human SH-SY5Y cells assessed as inhibition of cell viability at 100 uM incubated for 24 hrs by MTT assay; assay type: functional, cell-based
[18] = Drug uptake in mitochondria of rat PC12 cells at 8 uM incubated for 8.5 hrs by HPLC analysis; assay type: ADME; details: pc12, 8.5 h
PC-12 [19] = assay: (§1) Neuroprotective activity in H2O2-induced rat PC12 cells assessed as reversal of mitochondrial membrane potential reduction by measuring red fluorescence at 1.25 uM incubated with compound for 24 hrs followed by H2O2 addition and measured after 24 hrs by JC-1 based fluorescence microscopic analysis (reference value: 21.62 a.u.); assay type: functional
PC-12 [20] = assay: as §1, with “2.5” for “1.25”; assay type: functional
PC-12 [21] = assay: as §1, with “5” for “1.25”; assay type: functional
PC-12 [22] = assay: as §1, with “measuring green” for “measuring red”, “at 1.5” for “at 1.25”, “value: 4.90” for “value: 21.62”; assay type: functional
PC-12 [23] = assay: as §1, with “measuring green” for “measuring red”, “at 2.5” for “at 1.25”, “value: 4.90” for “value: 21.62”; assay type: functional
PC-12 [24] = assay: as §1, with “measuring green” for “measuring red”, “at 5” for “at 1.25”, “value: 4.90” for “value: 21.62”; assay type: functional
PC-12 [25] = assay: (§2) Neuroprotective activity in H2O2-induced rat PC12 cells assessed as reversal of mitochondrial membrane potential reduction by measuring red fluorescence fold change at 1.5 uM incubated with compound for 24 hrs followed by H2O2 addition and measured after 24 hrs by JC-1 based fluorescence microscopic analysis (reference value: 1.00); assay type: functional
PC-12 [26] = assay: as §2, with “2.5” for “1.5”; assay type: functional
PC-12 [27] = assay: as §2, with “5” for “1.5”; assay type: functional
PC-12 [28] = assay: as §2, with “measuring green” for “measuring red”; assay type: functional
PC-12 [29] = assay: as §2, with “measuring green” for “measuring red”, “at 2.5” for “at 1.5”; assay type: functional
PC-12 [30] = assay: as §2, with “measuring green” for “measuring red”, “at 5” for “at 1.5”; assay type: functional
PC-12 [31] = assay: Induction of autophagy in H2O2-induced rat PC12 cells assessed as downregulation of P62 expression by Western blot analysis; assay type: functional, cell-based; details: dose 1.25-5 µM
PC-12 [32] = assay: Induction of autophagy in H2O2-induced rat PC12 cells assessed as upregulation of LC3-II/I ratio by Western blot analysis; assay type: functional, cell-based; details: dose 1.25-5 µM
PC-12 [33] = assay: Induction of autophagy in rat PC12 cells assessed as reduction of LC3-II/I ratio in presence of 3-TYP by Western blot analysis; assay type: functional, cell-based
PC-12 [34] = assay: Neuroprotective activity in H2O2-induced rat PC12 cells assessed as reduction in cell viability in presence of 3-TYP at 10 uM; assay type: functional, cell-based
PC-12 [35] = assay: Neuroprotective activity in H2O2-induced rat PC12 cells assessed as upregulation of SIRT-3 level at 1.25 to 5 uM by Western blot analysis; assay type: functional, cell-based; details: dose 1.25-5 µM
PC-12 [36] = assay: Neuroprotective activity in H2O2-induced rat PC12 cells assessed as upregulation of Mfn-1 expression at 1.25 to 5 uM by Western blot analysis; assay type: functional, cell-based; details: dose 1.25-5 µM
PC-12 [37] = assay: Neuroprotective activity in H2O2-induced rat PC12 cells assessed as upregulation of p-AMPK/AMPK ratio at 1.25 to 5 uM by Western blot analysis; assay type: functional, cell-based; details: dose 1.25-5 µM
PC-12 [38] = assay: Neuroprotective activity in H2O2-induced rat PC12 cells assessed as suppression of Mfn-1 expression in presence of 3-TYP by Western blot analysis; assay type: functional, cell-based
[39] = Drug uptake in cytoplasm of rat PC12 cells at 8 uM incubated for 8.5 hrs by HPLC analysis; assay type: ADME, subcellular; details: pc12, 8.5 h
[40] = Drug uptake in rat PC12 cells at 8 uM incubated for 8.5 hrs by HPLC analysis; assay type: ADME, cell-based; details: pc-12, 8.5 h

With `C=CCc1ccc(OCCCNC(=O)[C@H](CCCNC(=O)OCc2ccccc2)NC(=O)[C@@H](NC(=O)[C@@H]2CCCN2C(=O)[C@@H](Cc2ccccc2)NC(=O)[C@H](CC(C)C)NC(=O)OC(C)(C)C)C(C)C)c(-c2ccc(O)c(CC=C)c2)c1` the Activity (PC-12 [1]) was “inactive”, the Activity (PC-12 [2]) was “Active” and the Activity (PC-12 [3]) was “Active”. For the same compound, the viability at 1.25 µM (PC-12 [4]) was 76.6%, the Activity (PC-12 [5]) was 17.2% and the Activity (PC-12 [6]) was 4.86%. For the same compound, the Activity (PC-12 [7]) was 1.4%, the viability at 2.5 µM (PC-12 [8]) was 83.9% and the Activity (PC-12 [9]) was 11.6%. The Activity (PC-12 [10]) was 2.87%, the Activity (PC-12 [11]) was 1.66% and the viability at 5 µM (PC-12 [12]) was 86.8%. It also gave an Activity (PC-12 [13]) of 8.97%, an Activity (PC-12 [14]) of 2.69% and an Activity (PC-12 [15]) of 1.58%. The Activity (PC-12 [16]) was “Active”, the Activity (Danio rerio) was “Active” and the Activity (PC-12 [17]) was “Dose-dependent-effect”.

With `C=CCc1ccc(O)c(-c2ccc(OCCCNC(=O)[C@H](CCCNC(=O)OCc3ccccc3)NC(=O)[C@@H](NC(=O)[C@@H]3CCCN3C(=O)[C@@H](Cc3ccccc3)NC(=O)[C@H](CC(C)C)NC(=O)OC(C)(C)C)C(C)C)c(CC=C)c2)c1` the Activity (SH-SY5Y) was “inactive”, the Activity (PC-12 [2]) was “Active” and the Drug uptake [18] was “Active”. It also gave an Activity (PC-12 [19]) of 3.18 a.u, an Activity (PC-12 [20]) of 11.01 a.u and an Activity (PC-12 [21]) of 15.68 a.u. The Activity (PC-12 [22]) was 3.7 a.u, the Activity (PC-12 [23]) was 7.17 a.u and the Activity (PC-12 [24]) was 4.76 a.u. The “fold change (FC)” value (PC-12 [25]) was 0.14, the “fold change (FC)” value (PC-12 [26]) was 0.52 and the “fold change (FC)” value (PC-12 [27]) was 0.74. For the same compound, the “fold change (FC)” value (PC-12 [28]) was 1.4, the “fold change (FC)” value (PC-12 [29]) was 2.91 and the “fold change (FC)” value (PC-12 [30]) was 1.44. The Activity (PC-12 [31]) was “Dose-dependent-effect”, the Activity (PC-12 [32]) was “Dose-dependent-effect” and the Activity (PC-12 [33]) was “Active”. For the same compound, the Activity (PC-12 [34]) was “Active”, the Activity (PC-12 [35]) was “Active” and the Activity (PC-12 [36]) was “Active”. For the same compound, the Activity (PC-12 [37]) was “Active”, the Activity (PC-12 [38]) was “Active” and the Activity (PC-12 [17]) was “Dose-dependent-effect”. The Drug uptake [39] was “Active” and the Drug uptake [40] was “Active”.

In the case of `CC(C)C[C@H](NC(=O)OC(C)(C)C)C(=O)N[C@H](Cc1ccccc1)C(=O)N1CCC[C@H]1C(=O)N[C@H](C(=O)N[C@@H](CCCNC(=O)OCc1ccccc1)C(=O)O)C(C)C`, the Activity (SH-SY5Y) is reported as “inactive” and the Activity (PC-12 [1]) is reported as “Active”.
